Literature values in PMC8621857, “Structural Insights into the Azole Resistance of the Candida albicans Darlington Strain Using Saccharomyces cerevisiae Lanosterol 14α-Demethylase as a Surrogate” (Journal of Fungi, 2021).

Test system: CaLDM I471T
Parameters: method as in PMID 20625155
Conditions: detergent solubilized CaLDM I471T single-mutation; cited from earlier work

SMILES: CC(C)=CCC[C@@H](C)[C@H]1CC[C@@]2(C)C3=C(CC[C@]12C)[C@@]1(C)CC[C@H](O)C(C)(C)[C@@H]1CC3 [lanosterol]
- higher affinity for the endogenous substrate than the wild-type protein: 2.4 fold
